Laboratory results from patent publication US6828350B1, “Modulators of cysteine protease” (Exegenics Inc., priority 1997, dated 2004).
Where “and” joins values, the source holds several entries; their conditions need not be identical. Equal entries are not always repeated.

Legend:
Hl-Hela cells = assay: Cytotoxicity by XTT assay (treated, mock-infected cells); conditions: read-out: TC50; Format 1; concentration that retards cell growth by 50%, mock-infected Hl-Hela cells
HRV 1A = assay: Antiviral assay, XTT method, HRV 1A; assay type: cell-based
HRV 16 = assay: Antiviral assay, XTT method, HRV 16; assay type: cell-based; conditions: HRV 16
HRV 14 = assay: Antiviral assay, XTT method, HRV 14; assay type: cell-based; conditions: HRV 14
HRV 1B = assay: Antiviral assay, XTT method, HRV 1B; assay type: cell-based; conditions: HRV 1B; Format 2
Apopain (caspase-3) = target: T1, Apopain (caspase-3) (Homo sapiens, UniProt P42574); assay: Apopain (Caspase-3) Regulation Assay (FluorAce Apopain Assay Kit); assay type: biochemical; conditions: Apopain modulation: Inhibitor or Activator
T1 construct: purchased Bio-rad FluorAce Apopain Assay Kit (booklet 4100119)
T1 sequence (P42574 29-175 limits assumed): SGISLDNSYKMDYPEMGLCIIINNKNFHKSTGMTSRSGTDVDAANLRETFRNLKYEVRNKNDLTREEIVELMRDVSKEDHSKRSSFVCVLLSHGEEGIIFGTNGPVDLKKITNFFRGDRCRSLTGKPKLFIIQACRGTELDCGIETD
T1 sequence (P42574 176-277 limits assumed): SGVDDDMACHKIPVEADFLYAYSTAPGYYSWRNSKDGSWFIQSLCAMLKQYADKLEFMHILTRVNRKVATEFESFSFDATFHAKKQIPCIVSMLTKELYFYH
Procedure: VI: Apopain (Caspase-3) Regulation Assay
The FluorAce™ Apopain Assay Kit (Bio-rad) was employed in multiwell format. Compounds assayed were diluted 5-fold in distilled water (from stock solutions in ethanol or DMSO) and centrifuged (5′, 14K rpm). 10 μL of the supernatant was further diluted in wells containing 100 μL distilled water and 40 μL 6×Buffer (41.7 mM PIPES, pH 7.4, 8.3 mM EDTA, 0.42% CHAPS, 20.8 mM DTT). This process was carried out twice to yield duplicate wells for each compound. Control wells were prepared by addition of EtOH and DMSO (5-fold diluted in distilled water) into wells containing 6×Buffer and distilled water (40 μL and 100 μL, respectively), to form 8 wells with each solvent. Enzyme (stock solution 10-fold diluted in distilled water, see Bio-rad booklet 4100119) was added to one set of compound-containing cells and to 8 control wells (4 with ethanol and 4 with DMSO). The plate was preincubated for ˜80′ at 27°-28° C. Substrate (Z-DEVD-AFC, 490 μM, 40 μL) was then added to all wells. The plate was left at room temperature and fluorescence (360/40↑530/20↓) was measured at several time points (FL500 fluorimetric reader, Bio-tek instruments). Fluorescence at enzyme-containing wells was background-subtracted at each time point and initial rates were determined by linear regression (typically R^2>0.97). Percentage inhibition and activation was determined by relating the slope with compound to the control slope (with appropriate solvent). IC50 values are extrapolated.

[1] = Cytotoxicity by XTT assay (treated, mock-infected cells); conditions: human, H1-HeLa cells (ATCC), mock-infected
3C protease = conditions: background, in words; cited from earlier work
[2] = Format 1, restores 50% of viral-caused decrease in cell viability

| Structure (SMILES) | IC50 (HRV 1A; Format 2) [µM] | IC50 (HRV 16; Format 2) [µM] | IC50 (HRV 14; Format 2) | CC50 (Hl-Hela cells) [µM] | IC50 (HRV 14; [2]) [µM] | other results |
| --- | --- | --- | --- | --- | --- | --- |
| CC(=O)c1cc(Cl)cc([N+](=O)[O-])c1O [compound 31] | 80 ± 62 | 35 ± 26 | 11 ± 1 µM | 12 ± 1 | 14 |  |
| O=Cc1c(O)cc(O)cc1O [compound 34] |  |  |  | 410 ± 30 | 94 |  |
| CC(=O)c1c(O)ccc2ccccc12 [compound 35] | 630 ± 470 | 38 ± 14 | 42 ± 20 µM | 180 ± 10 | 62 | IC50 (HRV 1B): 240 ± 140 µM |
| CCC(=O)c1cc(O)ccc1O [compound 36] |  | 44 ± 15 | 32 ± 4 µM | 1720 ± 660 | 27 |  |
| COc1ccc(O)c(C(C)=O)c1 [compound 37] | 830 ± 330 | 149 ± 148 | 220 ± 23 µM |  | 146 | CC50 [1]: > 1250 µM; IC50 (HRV 1B): 610 ± 160 µM; Activity (Apopain (caspase-3)): Inhibitor |
| CC(=O)c1cc(Br)cc(Br)c1O [compound 38] |  | 6 ± 2 | 10 ± 2 µM | 59 ± 4 | 26 |  |
| O=C(CCc1ccccc1)c1ccccc1O [compound 42] | 210 ± 70 |  | 120 ± 40 µM |  |  | IC50 (HRV 1B): 29 ± 1 µM |
| O=c1cc(-c2ccccc2)oc2c(Cl)c(O)c(Cl)c(O)c12 [compound 100] |  |  | 27 ± 25 µM |  |  |  |
| CCCCCC(=O)c1c(O)c(Cl)c(OC)c(Cl)c1OCC(N)=O [compound 118] |  |  |  | 122 ± 6 | 380 | IC50 (HRV 1A; Format 1): 81 µM |
| CCCCCC(=O)c1c(O)cc(O)c(Cl)c1OC [compound 125] |  |  |  | 50 ± 5 | 45 | IC50 (HRV 16; Format 1): 60 µM |
| O=C(c1ccccc1)c1ccccc1O [compound 136] |  | 6 ± 3 | 13 ± 5 µM | 28 ± 2 | 6.3 |  |
| O=C(c1ccccc1O)c1cc(Cl)ccc1O [compound 137] |  |  |  |  | 0.6 | IC50 (HRV 1A; Format 1): 6.2 µM |
| C/C=C/c1cc2c(c(=O)o1)C(=O)[C@@H](O)[C@H](C)O2 [radicinin] |  |  |  |  |  | inhibition of the 3C protease (3C protease): lower level of inhibition than thysanone |

The next lines start with results.

| IC50 (HRV 1A; Format 2) [µM] | IC50 (HRV 16; Format 2) [µM] | IC50 (HRV 14; Format 2) | Structure (SMILES) | CC50 (Hl-Hela cells) [µM] | IC50 (HRV 14; [2]) [µM] | other results |
| --- | --- | --- | --- | --- | --- | --- |
| 9 ± 1 | 6 ± 1 | 14 ± 3 µM | O=Cc1cc(Cl)cc(Cl)c1O [compound 33] |  |  | IC50 (HRV 1B): 4 ± 1 µM; Activity (Apopain (caspase-3)): Inhibitor |
|  |  | 160 ± 70 µM | CC(=O)c1cc(Cl)c(C)cc1O [compound 41] |  |  |  |
|  |  | 170 ± 100 µM | O=Cc1cc([N+](=O)[O-])ccc1O [compound 46] |  |  | Activity (Apopain (caspase-3)): Inhibitor |
|  |  | 12 ± 2 µM | O=Cc1cc(I)cc(I)c1O [compound 47] |  |  | Activity (Apopain (caspase-3)): Activator |
|  |  | 250 ± 90 µM | O=c1cc(-c2ccccc2)oc2cc(O)cc(O)c12 [compound 83] |  |  |  |
| 5 ± 1 | 7 ± 4 | 1.2 ± 0.5 µM | O=c1c(O)c(-c2ccc(O)cc2)oc2cc(O)cc(O)c12 [compound 90] |  |  | IC50 (HRV 1B): 7 ± 4 µM |
| 130 ± 14 | 50 ± 10 | 9 ± 4 µM | O=C(CCc1ccc(O)cc1)c1c(O)cc(O)cc1O [compound 91] |  |  | IC50 (HRV 1B): 26 ± 15 µM; Activity (Apopain (caspase-3)): Inhibitor |
|  | 70 ± 60 | 40 ± 30 µM | CCCCCC(=O)c1ccc(O)cc1O [compound 114] |  |  |  |
| 43 ± 9 | 0.5 ± 0.4 | 10 µM and 10.5 µM | O=C(c1ccccc1O)c1ccccc1O [compound 131] |  | 0.6 |  |
| 25 ± 12 | 27 ± 27 | 59 ± 4 µM | O=C(c1ccccc1O)c1cc(Br)ccc1O [compound 142] |  |  |  |
|  | 8 ± 8 |  | Cc1ccc(O)c(C(=O)c2ccccc2O)c1 [compound 143] |  |  |  |
|  | 2.1 ± 1.6 | 130 ± 40 µM | Cc1cc(O)c(C(=O)c2ccccc2O)cc1Cl [compound 144] |  |  |  |
|  | 70 ± 50 |  | COC(=O)c1c(O)cc(C)cc1O [compound 147] |  |  |  |
